Measured values reported in PMC10936776, “Structural and functional characterization of AfsR, an SARP family transcriptional activator of antibiotic biosynthesis in Streptomyces” (PLOS Biology, 2024).

What was measured:
[1] = target: T1, AfsR (dephosphorylated AfsR) (Streptomyces coelicolor, UniProt P25941); experiment: in vitro MangoIII transcription assay after preincubation; format: biochemical; details: 500 nM dephosphorylated AfsR, 1 mM ATPγS preincubation 10 min 30 °C, RNAP-σHrdB, RbpA, CarD; activator
T1 construct: full-length, 993 residues, pET28a (His-tagged), E. coli BL21(DE3), Ni-NTA and SEC; wild type treated with lambda phosphatase (E. coli protein carries pT337); mainly monomer

[2] = target: T2, phosphorylated AfsR (phos-AfsR) (Streptomyces coelicolor, UniProt P25941); experiment: as above; format: biochemical; details: 500 nM phosphorylated AfsR, 1 mM ATPγS preincubation; activator
T2 construct: full-length, 993 residues, pET28a (His-tagged), E. coli BL21(DE3); dephosphorylated, then phosphorylated in vitro by AfsKΔC (pS22, pT337, pS391, pT506, pS953 by MS), SEC
T2 sequence (P25941 whole entry): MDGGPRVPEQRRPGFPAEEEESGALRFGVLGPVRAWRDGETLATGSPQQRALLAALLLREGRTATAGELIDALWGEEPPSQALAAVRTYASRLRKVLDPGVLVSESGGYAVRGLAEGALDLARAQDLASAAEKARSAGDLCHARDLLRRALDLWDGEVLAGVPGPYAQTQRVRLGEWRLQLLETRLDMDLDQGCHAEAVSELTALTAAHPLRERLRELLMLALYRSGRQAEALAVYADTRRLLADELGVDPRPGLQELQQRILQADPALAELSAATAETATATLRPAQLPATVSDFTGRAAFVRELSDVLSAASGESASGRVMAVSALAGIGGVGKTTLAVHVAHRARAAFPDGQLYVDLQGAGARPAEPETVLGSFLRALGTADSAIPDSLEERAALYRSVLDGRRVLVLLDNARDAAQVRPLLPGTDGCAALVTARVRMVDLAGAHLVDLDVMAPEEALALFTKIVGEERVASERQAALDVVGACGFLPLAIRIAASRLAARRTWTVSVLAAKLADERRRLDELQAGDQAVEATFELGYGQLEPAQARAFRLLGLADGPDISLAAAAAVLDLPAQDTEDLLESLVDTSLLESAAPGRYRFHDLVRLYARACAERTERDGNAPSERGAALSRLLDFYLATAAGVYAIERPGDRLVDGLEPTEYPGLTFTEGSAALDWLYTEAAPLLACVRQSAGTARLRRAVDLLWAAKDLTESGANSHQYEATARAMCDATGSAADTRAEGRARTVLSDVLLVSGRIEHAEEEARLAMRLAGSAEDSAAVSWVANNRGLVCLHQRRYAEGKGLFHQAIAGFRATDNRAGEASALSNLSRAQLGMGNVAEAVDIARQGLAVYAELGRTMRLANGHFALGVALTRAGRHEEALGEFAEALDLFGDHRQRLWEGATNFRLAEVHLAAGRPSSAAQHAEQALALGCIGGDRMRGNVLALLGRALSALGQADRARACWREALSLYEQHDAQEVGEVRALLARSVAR

T1 sequence (P25941 whole entry): as above

With `Nc1ncnc2c1ncn2[C@@H]1O[C@H](COP(=O)(O)OP(=O)(O)OP(O)(O)=S)[C@@H](O)[C@H]1O` [ATPγS] the transcription activation [1] was “comparable effect of preincubation with a non-hydrolyzable ATP analogue, ATPγS” and the transcription activation [2] was “exhibits partial activation in response to non-hydrolysable ATPγS”.
